# Patent US20170311608A1, “BACILLUS THURINGIENSIS SUBSP. AIZAWAI AND CYANTRANILIPROLE MIXTURES FOR DIAMONDBACK MOTH, CABBAGE LOOPER, BEET ARMYWORM, SOYBEAN LOOPER, CORN EARWORM, SOUTHWESTERN CORN BORER AND SUGARCANE BORER CONTROL” (priority 2016, published 2017)
# Read-outs that look alike come from different tables or passages of the source.
# What was measured:
# [1] = tested on: soybean looper larvae; assay: Leaf dip test, soybean looper larvae; assay type: in vivo, Chrysodeixis includens; conditions: foliar, Bta 27 ppm, cyantraniliprole 1.0 ppm, mixture 27 ppm + 1.0 ppm, read-out: % Efficacy
# Experimental: (§1) The present invention is not limited to the products or formulation types used herein. In each example below, the studies were conducted as follows.
# (§2) For these tests, standardized laboratory leaf dip methods were used to inoculate plant material with treatment(s). Dry, treated leaves were placed into Petri dishes (100×25 mm) containing filter paper wetted with 500 μl of distilled H2O (“dH2O”). Each dish was then infested with between 5 and 10 larvae, dependent on species. Efficacy ratings were taken at specified intervals. Synergy ratings were calculated for each test.
# (§3) % Cexp=A+B−(AB/100), where % Cexp is the expected efficacy and “in which A and B are the control levels given by the single [insecticides]. […] Adopting a conservative approach, Applicant determined synergy to be present at ratios of >1.15.
# [2] = tested on: sugarcane borer larvae; assay: Leaf dip test, sugarcane borer larvae; assay type: in vivo; conditions: Diatraea saccharalis, foliar, Bta 2.7 ppm, cyantraniliprole 1.0 ppm, mixture 2.7 ppm + 1.0 ppm, read-out: % Efficacy
# Experimental: as §1, §2, §3
# [3] = tested on: diamondback moth larvae; assay: Leaf dip test, diamondback moth larvae; assay type: in vivo; conditions: Plutella xylostella, foliar, Bta 2.7 ppm, cyantraniliprole 0.1 ppm, mixture 2.7 ppm + 0.1 ppm, read-out: % Efficacy
# Description: The following examples illustrate the effectiveness of Bacillus thuringiensis subsp. aizawai and cyantraniliprole when controlling diamondback moth, cabbage looper, beet armyworm, soybean looper, corn earworm, southwestern corn borer and sugarcane borer. Xentari® was used as the source of Bacillus thuringiensis subsp. aizawai and Exirel® was used as the source of cyantraniliprole. The present invention is not limited to the products or formulation types used herein. In each example below, the studies were conducted as follows.
# For these tests, standardized laboratory leaf dip methods were used to inoculate plant material with treatment(s). […] Synergy ratings were calculated for each test. […]
# % Cexp=A+B−(AB/100), where % Cexp is the expected efficacy and “in which A and B are the control levels given by the single [insecticides]. […] Adopting a conservative approach, Applicant determined synergy to be present at ratios of >1.15. […]
# In order to determine synergy, rates below normal field rate ranges must be used. If normal field rate ranges are used, all of the larvae would die (combining a lethal or near lethal dose of Bacillus thuringiensis subsp. aizawai with a lethal dose of cyantraniliprole would most likely lead to larvae death) in every treatment and synergy would not be able to be determined. […]
# [4] = tested on: corn earworm larvae; assay: Leaf dip test, corn earworm larvae; assay type: in vivo; conditions: Helicoverpa zea, foliar, Bta 27 ppm, cyantraniliprole 10.0 ppm, mixture 27 ppm + 10.0 ppm, read-out: % Efficacy
# Experimental: as §1, §2, §3
# [5] = tested on: southwestern corn borer larvae; assay: Leaf dip test, southwestern corn borer larvae; assay type: in vivo, Diatraea grandiosella; conditions: foliar, Bta 2.7 ppm, cyantraniliprole 0.1 ppm, mixture 2.7 ppm + 0.1 ppm, read-out: % Efficacy
# Experimental: as §1, §2, §3
# [6] = tested on: beet armyworm larvae; assay: Leaf dip test, beet armyworm larvae; assay type: in vivo; conditions: Spodoptera exigua, foliar, Bta 2.7 ppm, cyantraniliprole 1.0 ppm, mixture 2.7 ppm + 1.0 ppm, read-out: % Efficacy
# Experimental: as §1, §2, §3
# [7] = tested on: cabbage looper larvae; assay: Leaf dip test, cabbage looper larvae; assay type: in vivo; conditions: Trichoplusia ni, foliar, Bta 2.7 ppm, cyantraniliprole 0.50 ppm, mixture 2.7 ppm + 0.50 ppm, read-out: % Efficacy
# Experimental: as §1, §2, §3
smiles,measurement,setting,value
"CNC(=O)c1cc(C#N)cc(C)c1NC(=O)c1cc(Br)nn1-c1ncccc1Cl [Cyantraniliprole, 3-Bromo-1-(3-chloro-2-pyridinyl)-N-[4-cyano-2-methyl-6-(methylcarbamoyl)phenyl]-1H-pyrazole-5-carboxamide]",Emax at 1 ppm,[1]; 24 h after treatment,4%
same,Emax at 1 ppm,[1]; 48 h after treatment,25%
same,Emax at 1 ppm,[2]; 24 h after treatment,42%
same,Emax at 1 ppm,[2]; 48 h after treatment,42%
same,Emax at 0.1 ppm,[3]; 24 h after treatment,34%
same,Emax at 0.1 ppm,[3]; 48 h after treatment,60%
same,Emax at 10 ppm,[4]; 24 h after treatment,49%
same,Emax at 10 ppm,[4]; 48 h after treatment,51%
same,Emax at 0.1 ppm,[5]; 24 h after treatment,17%
same,Emax at 0.1 ppm,[5]; 48 h after treatment,24%
same,Emax at 1 ppm,[6]; 24 h after treatment,22%
same,Emax at 1 ppm,[6]; 48 h after treatment,36%
same,Emax at 0.5 ppm,[7]; 24 h after treatment,18%
same,Emax at 0.5 ppm,[7]; 48 h after treatment,38%
